Test system: Japanese bulrush
Test: Test Example 1: herbicidal activity, application before weed generation under submerged conditions (Table 16, symbol B)
Format: in vivo, Japanese bulrush (Schoenoplectus juncoides)
Conditions: 320 g/ha applied herbicide
Summary of the method: (§1)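 Submerged Wagner pots (alluvial soil, 4 cm water) sown with weed seeds and planted with 2.5-leaf rice seedlings; emulsifiable concentrate diluted in water applied to water surface on sowing day. Held in greenhouse at 25-30 °C; injury scored 0-5 by herbicidal rate after three weeks.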

Compound | Herbicidal effect on B: Japanese bulrush (grade 0-5)
CCCC(=O)Oc1c(C)nn(C)c(=O)c1-c1c(-c2cccc(F)c2)sc2ccc(F)cc12 [2-202] | 0 (Herbicidal rate of 5% or less (almost no effect))
Cc1nn(C)c(=O)c(-c2c(-c3cccc(OC(C)C)c3)sc3ccc(F)cc23)c1O [2-215] | 0 (Herbicidal rate of 5% or less (almost no effect))

Test system: barnyard grass
Test: Test Example 5: herbicidal effect by foliage application, plastic box (Table 20, symbol H)
Format: in vivo, barnyard grass (Echinochloa crus-galli)
Conditions: foliage application, 320 g/ha, evaluated three weeks after application
Summary of the method: (§2)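 Foliar spray test: emulsion formulation diluted in water to a set application rate, sprayed onto 14-day-old plants raised in diluvial soil at 25° C to 30° C under glass. Both herbicidal effect and crop effect rated visually three weeks later.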

Compound | herbicidal effect on H: barnyard grass (criteria 0-5)
CCCC(=O)Oc1c(C)nn(C)c(=O)c1-c1c(-c2cccc(F)c2)sc2ccc(F)cc12 [2-202] | 4 (Herbicidal rate of 70% or more and less than 90%)
Cc1nn(C)c(=O)c(-c2c(-c3cccc(OC(C)C)c3)sc3ccc(F)cc23)c1O [2-215] | 5 (Herbicidal rate of 90% or more (almost completely withered))

Test system: barnyard grass
Test: Test Example 3: herbicidal effect by foliage application, Wagner pot (Table 18, symbol H)
Format: in vivo, barnyard grass (Echinochloa crus-galli)
Conditions: amount of applied herbicide 320 g/ha
Summary of the method: (§3)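 Plants were sown in alluvial soil held under 0.1–0.5 cm standing water and grown 14 days in a greenhouse at 25–30 °C. An emulsifiable formulation, water-diluted to the set dose, was then sprayed onto the foliage, and effects were scored three weeks later using previously defined criteria.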

Compound | herbicidal effect on H: barnyard grass
CCCC(=O)Oc1c(C)nn(C)c(=O)c1-c1c(-c2cccc(F)c2)sc2ccc(F)cc12 [2-202] | 5 (Herbicidal rate of 90% or more (almost completely withered))
Cc1nn(C)c(=O)c(-c2c(-c3cccc(OC(C)C)c3)sc3ccc(F)cc23)c1O [2-215] | 5 (Herbicidal rate of 90% or more (almost completely withered))

Test system: oval-leafed pondweed
Test: Test Example 2: herbicidal activity, application during weed generation under submerged conditions (Table 17, symbol C)
Format: in vivo, oval-leafed pondweed (Monochoria vaginalis)
Conditions: AAH 320 g/ha; application during weed generation, submerged conditions
Summary of the method: (§4)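 In this pot test, flooded alluvial soil (water depth 4 cm) holds all three species sown as a mixture. Once seedlings have one to two leaves, the compound's emulsion, thinned with water to the intended dose, is poured on the water; grading follows after three weeks on the earlier criteria.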

Compound | herbicidal effect rating, C: oval-leafed pondweed
CCCC(=O)Oc1c(C)nn(C)c(=O)c1-c1c(-c2cccc(F)c2)sc2ccc(F)cc12 [2-202] | 4 (Herbicidal rate of 70% or more and less than 90%)
Cc1nn(C)c(=O)c(-c2c(-c3cccc(OC(C)C)c3)sc3ccc(F)cc23)c1O [2-215] | 0 (Herbicidal rate of 5% or less (almost no effect))

Test system: late watergrass
Test: Test Example 2: herbicidal activity, application during weed generation under submerged conditions (Table 17, symbol A)
Format: in vivo, late watergrass (Echinochloa oryzicola)
Conditions: AAH 320 g/ha; application during weed generation, submerged conditions
Summary of the method: as §4

Compound | herbicidal effect rating, A: late watergrass
CCCC(=O)Oc1c(C)nn(C)c(=O)c1-c1c(-c2cccc(F)c2)sc2ccc(F)cc12 [2-202] | 4 (Herbicidal rate of 70% or more and less than 90%)
Cc1nn(C)c(=O)c(-c2c(-c3cccc(OC(C)C)c3)sc3ccc(F)cc23)c1O [2-215] | 2 (Herbicidal rate of 20% or more and less than 40%)

Test system: blackgrass
Test: Test Example 5: herbicidal effect by foliage application, plastic box (Table 20, symbol J)
Format: in vivo, blackgrass (Alopecurus myosuroides)
Conditions: foliage application, 320 g/ha, evaluated three weeks after application
Summary of the method: as §2

Compound | herbicidal effect on J: blackgrass (criteria 0-5)
CCCC(=O)Oc1c(C)nn(C)c(=O)c1-c1c(-c2cccc(F)c2)sc2ccc(F)cc12 [2-202] | 1 (Herbicidal rate of 5% or more and less than 20%)
Cc1nn(C)c(=O)c(-c2c(-c3cccc(OC(C)C)c3)sc3ccc(F)cc23)c1O [2-215] | 3 (Herbicidal rate of 40% or more and less than 70%)

Test system: green foxtail
Test: Test Example 5: herbicidal effect by foliage application, plastic box (Table 20, symbol G)
Format: in vivo, green foxtail (Setaria viridis)
Conditions: foliage application, 320 g/ha, evaluated three weeks after application
Summary of the method: as §2

Compound | herbicidal effect on G: green foxtail (criteria 0-5)
CCCC(=O)Oc1c(C)nn(C)c(=O)c1-c1c(-c2cccc(F)c2)sc2ccc(F)cc12 [2-202] | 4 (Herbicidal rate of 70% or more and less than 90%)
Cc1nn(C)c(=O)c(-c2c(-c3cccc(OC(C)C)c3)sc3ccc(F)cc23)c1O [2-215] | 5 (Herbicidal rate of 90% or more (almost completely withered))

Test system: redroot pigweed
Test: Test Example 4: herbicidal effect by soil treatment (Table 19, symbol N)
Format: in vivo, redroot pigweed (Amaranthus retroflexus)
Conditions: amount of applied herbicide 320 g/ha
Summary of the method: (§5)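 Herbicidal effect was rated 3 weeks after treatment, using the scoring criteria of an earlier test. The compound, formulated as an emulsion and diluted in water to a set herbicide amount, had been sprayed uniformly on soil over freshly sown seeds. Growth took place in a greenhouse at 25° C. to 30° C.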

Compound | N: redroot pigweed, herbicidal effect rating
CCCC(=O)Oc1c(C)nn(C)c(=O)c1-c1c(-c2cccc(F)c2)sc2ccc(F)cc12 [2-202] | 5 (Herbicidal rate of 90% or more (almost completely withered))
Cc1nn(C)c(=O)c(-c2c(-c3cccc(OC(C)C)c3)sc3ccc(F)cc23)c1O [2-215] | 5 (Herbicidal rate of 90% or more (almost completely withered))

Test system: late watergrass
Test: Test Example 1: herbicidal activity, application before weed generation under submerged conditions (Table 16, symbol A)
Format: in vivo, late watergrass (Echinochloa oryzicola)
Conditions: 320 g/ha applied herbicide
Summary of the method: as §1

Compound | Herbicidal effect on A: late watergrass (grade 0-5)
CCCC(=O)Oc1c(C)nn(C)c(=O)c1-c1c(-c2cccc(F)c2)sc2ccc(F)cc12 [2-202] | 3 (Herbicidal rate of 40% or more and less than 70%)
Cc1nn(C)c(=O)c(-c2c(-c3cccc(OC(C)C)c3)sc3ccc(F)cc23)c1O [2-215] | 3 (Herbicidal rate of 40% or more and less than 70%)

Test system: Italian ryegrass
Test: Test Example 5: herbicidal effect by foliage application, plastic box (Table 20, symbol K)
Format: in vivo, Italian ryegrass (Lolium multiflorum)
Conditions: foliage application, 320 g/ha, evaluated three weeks after application
Summary of the method: as §2

Compound | herbicidal effect on K: Italian ryegrass (criteria 0-5)
CCCC(=O)Oc1c(C)nn(C)c(=O)c1-c1c(-c2cccc(F)c2)sc2ccc(F)cc12 [2-202] | 3 (Herbicidal rate of 40% or more and less than 70%)
Cc1nn(C)c(=O)c(-c2c(-c3cccc(OC(C)C)c3)sc3ccc(F)cc23)c1O [2-215] | 5 (Herbicidal rate of 90% or more (almost completely withered))

Test system: wild oat
Test: Test Example 5: herbicidal effect by foliage application, plastic box (Table 20, symbol I)
Format: in vivo, wild oat (Avena fatua)
Conditions: foliage application, 320 g/ha, evaluated three weeks after application
Summary of the method: as §2

Compound | herbicidal effect on I: wild oat (criteria 0-5)
CCCC(=O)Oc1c(C)nn(C)c(=O)c1-c1c(-c2cccc(F)c2)sc2ccc(F)cc12 [2-202] | 1 (Herbicidal rate of 5% or more and less than 20%)
Cc1nn(C)c(=O)c(-c2c(-c3cccc(OC(C)C)c3)sc3ccc(F)cc23)c1O [2-215] | 0 (Herbicidal rate of 5% or less (almost no effect))

Test system: Italian ryegrass
Test: Test Example 4: herbicidal effect by soil treatment (Table 19, symbol K)
Format: in vivo, Italian ryegrass (Lolium multiflorum)
Conditions: amount of applied herbicide 320 g/ha
Summary of the method: as §5

Compound | K: Italian ryegrass, herbicidal effect rating
CCCC(=O)Oc1c(C)nn(C)c(=O)c1-c1c(-c2cccc(F)c2)sc2ccc(F)cc12 [2-202] | 1 (Herbicidal rate of 5% or more and less than 20%)
Cc1nn(C)c(=O)c(-c2c(-c3cccc(OC(C)C)c3)sc3ccc(F)cc23)c1O [2-215] | 3 (Herbicidal rate of 40% or more and less than 70%)

Test system: redroot pigweed
Test: Test Example 5: herbicidal effect by foliage application, plastic box (Table 20, symbol N)
Format: in vivo, redroot pigweed (Amaranthus retroflexus)
Conditions: foliage application, 320 g/ha, evaluated three weeks after application
Summary of the method: as §2

Compound | herbicidal effect on N: redroot pigweed (criteria 0-5)
CCCC(=O)Oc1c(C)nn(C)c(=O)c1-c1c(-c2cccc(F)c2)sc2ccc(F)cc12 [2-202] | 5 (Herbicidal rate of 90% or more (almost completely withered))
Cc1nn(C)c(=O)c(-c2c(-c3cccc(OC(C)C)c3)sc3ccc(F)cc23)c1O [2-215] | 5 (Herbicidal rate of 90% or more (almost completely withered))

Test system: rice flat sedge
Test: Test Example 3: herbicidal effect by foliage application, Wagner pot (Table 18, symbol E)
Format: in vivo, rice flat sedge (Cyperus iria)
Conditions: amount of applied herbicide 320 g/ha
Summary of the method: as §3

Compound | herbicidal effect on E: rice flat sedge
CCCC(=O)Oc1c(C)nn(C)c(=O)c1-c1c(-c2cccc(F)c2)sc2ccc(F)cc12 [2-202] | 5 (Herbicidal rate of 90% or more (almost completely withered))
Cc1nn(C)c(=O)c(-c2c(-c3cccc(OC(C)C)c3)sc3ccc(F)cc23)c1O [2-215] | 4 (Herbicidal rate of 70% or more and less than 90%)

Test system: windgrass
Test: Test Example 4: herbicidal effect by soil treatment (Table 19, symbol L)
Format: in vivo, windgrass (Apera spica-venti)
Conditions: amount of applied herbicide 320 g/ha
Summary of the method: as §5

Compound | L: windgrass, herbicidal effect rating
CCCC(=O)Oc1c(C)nn(C)c(=O)c1-c1c(-c2cccc(F)c2)sc2ccc(F)cc12 [2-202] | 0 (Herbicidal rate of 5% or less (almost no effect))
Cc1nn(C)c(=O)c(-c2c(-c3cccc(OC(C)C)c3)sc3ccc(F)cc23)c1O [2-215] | 0 (Herbicidal rate of 5% or less (almost no effect))

Test system: Chinese sprangletop
Test: Test Example 3: herbicidal effect by foliage application, Wagner pot (Table 18, symbol D)
Format: in vivo, chinese sprangletop (Leptochloa chinensis)
Conditions: amount of applied herbicide 320 g/ha
Summary of the method: as §3

Compound | herbicidal effect on D: Chinese sprangletop
CCCC(=O)Oc1c(C)nn(C)c(=O)c1-c1c(-c2cccc(F)c2)sc2ccc(F)cc12 [2-202] | 5 (Herbicidal rate of 90% or more (almost completely withered))
Cc1nn(C)c(=O)c(-c2c(-c3cccc(OC(C)C)c3)sc3ccc(F)cc23)c1O [2-215] | 5 (Herbicidal rate of 90% or more (almost completely withered))

From patent publication US20230085307A1, “PYRIDAZINONE COMPOUND AND HERBICIDE” (NISSAN CHEMICAL CORPORATION, priority 2019, published 2023)
